Like-named read-outs stand apart in the source and are kept apart here.
Experiments:
colon = assay: Tumor growth reduction in mice models (Tables 5 and 6), colon; assay type: in vivo; conditions: HT29-colon, positive control 4 mg/kg
rhinovirus = assay: In vitro rhinovirus model; assay type: cell-based
B-16 mouse melanoma = tested on: B-16 mouse melanoma
Procedure: The data in Tables 1, 2 and 3 are reported in T/C which is interpreted using the following scale:
long term survivors for P388 is >30 days, for B16 it is >60 days. The NCI Measure of Success is T/C=125.
This study was performed in black mice injected i.p. with B-16 mouse melanoma which many researchers believe is the most predictive model for efficacy in humans. […] Death is the end point in this model.

[1] = assay type: in vivo
From the text: Additional in vivo cancer studies are presented in a tabular form below. The data is presented in the following format—dose regimen in parenthesis, dosage in mg/kg: tumor growth suppression (tg supp.), toxic deaths/number of test subjects (deaths), % weight change (wt).

MX1 breast cells = assay: MTT cell viability test, breast tumor cells; assay type: cell-based, human; conditions: 5 day incubation
HT29 colon tumor cells = assay: MTT cell viability test, colon tumor cells; assay type: cell-based, human; conditions: for EC-50 Result: MTT, 5 day incubation; for Optical Density: HT-29, control 0.398
A549 lung tumor cells = assay: MTT cell viability test, lung tumor cells; assay type: cell-based, human; conditions: for EC-50 Result: MTT, 5 day incubation; for Optical Density: A-549, control 0.600
herpes [2] = assay: In vivo herpes screening test; design: species or system mice
Procedure: The positive control was acyclovir at 75 mg/kg dose; 60% of the mice survived with a mean death date of 17.2 days.

[3] = given for perspective; cited from earlier work
[4] = tested on: HIV-1 in U1 cells (promonocytic, from U937); assay: Additional chronic HIV studies, monocytes; assay type: cell-based
Procedure: (§1) Chronic HIV-1 infected cells U1 were derived from an acute HIV-1 infection of the promonocytic cell line, U937. The chronic HIV-1 infected cells, ACH-2 were derived from an acute HIV-1 infection of the T cell line, A3.01.
(§2) These cells were cultured in medium and the phorbol ester, PMA. PMA causes the cells (both U1 and ACH-2) to be activated and not divide but it also causes the U-1 cells to differentiate. […] Cell viability was measured when these cell lines were treated with the test compound.
(§3) Both cell lines constituitively produce a small amount of HIV-1. ACH-2 cell lines tend to produce more HIV-1 than U1 cells as shown by p24 ELISA. When either cell line is cultured in the presence of PMA there is an increase in the quantity of HIV-1 produced as measured by the p24 antigen ELISA.
(§4) In addition, the number of […] positive HIV mRNA expressing cells per microscopic field is measured. Comparisons can be made from these numbers since the same number of cells were adhered to the glass slides for each drug concentration 10×10^6 cells/ml).
(§5) These cells were treated with test samples. […] The positive control was interferon which suppressed HIV monocytes replication by 80%.

HIV = assay: microbe, parasite or virus in culture; assay type: cell-based
influenza [5] = assay: In vivo model for influenza; design: species or system mice
Procedure: The positive control was amantadine (75 mg/kg) with 100% of the mice surviving for 21 days. 2-(Methoxycarbonylamino)benzimidazole was not active in the same test.

[6] = tested on: Human Tumor Colony Forming Units; assay: In Vitro Human Tumor Colony Forming Units Test
herpes [7] = assay: In vitro herpes model; assay type: cell-based
[8] = tested on: HIV-1 in ACH-2 cells (T cell line A3.01); assay: Additional chronic HIV studies, T cells; assay type: cell-based; conditions: 60 μg/ml
Procedure: as §1, §2, §3, §4, §5

influenza [9] = assay: In vitro influenza model; assay type: cell-based
[10] = tested on: HIV, pretreated chronically infected cells; assay type: cell-based; conditions: irrespective of the culture conditions
[11] = tested on: HIV, chronically infected cells; assay: Virus Resistance Studies; assay type: cell-based; conditions: cultures treated at 40 and 80 μg/ml
P388 = assay: P-388 model for leukemia, T/C; assay type: in vivo, mice
From the text: In the P-388 model for leukemia there was a dose responsive effect and the results were good.
The NCI Measure of Success is T/C=125.

[12] = tested on: HIV, chronically infected cells; assay: Reappearance of virus production from chronically infected cells previously treated; assay type: cell-based
[13] = tested on: breast tumor cells (MCF-7); assay: Related study of tumor cell killing (optical density); assay type: cell-based; conditions: control 0.245
From the text: In a related study using lung tumor cells (A-549) breast tumor cells (MCF-7) and colon tumor cells (HT-29), thiabeadazole effectively killed these cells.

[14] = tested on: MX1 breast cancer tumors implanted subcutaneously; assay: Tumor growth reduction in mice models (Table 5), breast; assay type: in vivo
[15] = tested on: HIV-1 (CEM-SK1, U937-SK1, H9-SK1, U1 and ACH2 cells); assay: HIV Virus Replication Study in chronically infected cells; assay type: cell-based
Procedure: Thiabendazole was tested in chronically infected HIV virus. These cell populations contain integrated copies of the HIV genome and constituitively produce HIV at relatively high levels (CEM-SK1, U937-SK1 and H9-SK1 from Frederick Research Center, Maryland) or are latently infected and only produce virus after stimulation with phorbol esters, tumor necrosis factor or IL6 (U1 and ACH2).
Toxicity to the chronically infected cells was similar to that observed with the uninfected cells.
After 28 days of treatment on chronically infected cells, the toxicity of the compound to the target cells appeared similar in both uninfected and chronically infected cells.
This reduction of virus production occurs at concentrations which are nontoxic to the host cell and which have no effect on the synthesis of cellular DNA, RNA and protein.

MCF-7L breast line = MCF-7L breast line study versus Navelbine and Taxol, tumor weight; assay type: in vivo, mice; conditions: 16 mg/kg qd×5 i.p., carbendazim treatment begun on day 130; c1-c4 = day 236, 239, 245, 249
lung = assay type: in vivo; conditions: A549-lung, positive control 125 mg/kg
[16] = SK-MES, positive control 2 mg/kg, 5 doses
[17] = SK-MES, positive control 20 mg/kg, 5 doses
[18] = positive control, 300 mg/kg on dose
[19] = A549 (lung), positive control 125 mg/kg
[20] = DU-145, positive control 300 mg/kg, 1 dose
[21] = HT29 (colon), positive control 300 mg/kg, 1 dose
[22] = MCF-7L (breast), positive control 300 mg/kg, 1 dose
[23] = MX1 xenograft, positive control 300 mg/kg, 1 dose

N.N.[Cl][Pt][Cl] [cis-plat]
Tumor Growth Decrease (colon): 59%

COc1ccc2nc(C(O)C(O)c3nc4ccc(OC)cc4[nH]3)[nH]c2c1 (stereo not shown) [A36683, reference compound]
therapeutic index (TI), ratio of toxic dose to efficacious dose (rhinovirus): 1000-3200

CCC1=C[C@@H]2CN(C1)Cc1c([nH]c3ccccc13)[C@@](C(=O)OC)(c1cc3c(cc1OC)N(C)[C@H]1[C@@](O)(C(=O)OC)[C@H](OC(C)=O)[C@]4(CC)C=CCN5CC[C@]31[C@@H]54)C2 [Navelbine]
increased life span, Positive Control (B-16 mouse melanoma; B16 melanoma, positive control (2)): 265% | % weight change (wt) [1, 16]: −5% | toxic deaths/number of test subjects (deaths) [1, 16]: 1/10 | tumor growth suppression (tg supp.) [1, 16]: 26%

COc1cccc2c1C(=O)c1c(O)c3c(c(O)c1C2=O)C[C@@](O)(C(=O)CO)C[C@@H]3O[C@H]1C[C@H](N)[C@H](O)[C@H](C)O1 [Adriamycin, reference compound]
EC-50 Result (MX1 breast cells; MX1, first column): 0.02 ppm | EC-50 Result (MX1 breast cells; MX1, second column): 0.001 ppm | EC-50 Result (HT29 colon tumor cells; HT29, first column): 0.03 ppm | EC-50 Result (HT29 colon tumor cells; HT29, second column): 0.006 ppm | EC-50 Result (A549 lung tumor cells; A549, first column): 0.03 ppm | EC-50 Result (A549 lung tumor cells; A549, second column): 0.009 ppm

Nc1nc2c(ncn2COCCO)c(=O)[nH]1 [acyclovir, reference compound]
mean death date (herpes [2]; 75 mg/kg): 17.2 days | mice survived (herpes [2]; 75 mg/kg): 60%

CCCCNC(=O)n1c(NC(=O)OC)nc2ccccc21 [benomyl]
EC-50 Result (MX1 breast cells; MX1, first column): 1.42 ppm | EC-50 Result (MX1 breast cells; MX1, second column): 2.42 ppm | EC-50 Result (HT29 colon tumor cells; HT29, first column): 0.742 ppm | EC-50 Result (HT29 colon tumor cells; HT29, second column): 0.747 ppm | EC-50 Result (A549 lung tumor cells; A549, first column): 0.980 ppm | EC-50 Result (A549 lung tumor cells; A549, second column): 1.02 ppm

[Cl-].[Na+] [table salt]
LD50 [3]: 3750 mg/kg

Cc1cn([C@H]2C[C@H](N=[N+]=[N-])[C@@H](CO)O2)c(=O)[nH]c1=O [AZT, reference compound]
activity in this model ([4]; chronic HIV model): no activity | inhibition of viral replication (HIV; 1 μg/ml): 98%

NC12CC3CC(CC(C3)C1)C2 [amantadine, reference compound]
mice surviving (influenza [5]; 75 mg/kg, for 21 days): 100%

c1ccc2[nH]c(-c3cscn3)nc2c1 [thiabendazole, 2-(4-thiazolyl)-1-H-benzimidazole]
suppression of replication in the HIV monocytes ([4]; 60 μg/ml): 74% | activity against B16 (B-16 mouse melanoma; mouse, in vivo): no activity | positive results / tumors tested ([6]; 1 Hour Exposure, 0.5 μg/ml): 0/3 | positive results / tumors tested ([6]; 1 Hour Exposure, 5.0 μg/ml): 0/3 | positive results / tumors tested ([6]; 1 Hour Exposure, 50.0 μg/ml): 0/3 | positive results / tumors tested ([6]; Continuous Exposure, 0.5 μg/ml): 1/10 | positive results / tumors tested ([6]; Continuous Exposure, 5.0 μg/ml): 2/10 | positive results / tumors tested ([6]; Continuous Exposure, 50.0 μg/ml): 7/10 | activity (herpes [7]): no activity | Optical Density (HT29 colon tumor cells; 0.87 ppm): 0.852 | Optical Density (HT29 colon tumor cells; 3.46 ppm): 0.713 | Optical Density (HT29 colon tumor cells; 17.3 ppm): 0.204 | Optical Density (HT29 colon tumor cells; 35 ppm): 0.011 | Optical Density (HT29 colon tumor cells; 173 ppm): 0.005 | increase of T-cell HIV replication [8]: 26% | mean death date (herpes [2]; 100 mg/kg): 9.2 | mice survived (herpes [2]; 100 mg/kg): 50% | mean death date (herpes [2]; 200 mg/kg): 10.4 | mice survived (herpes [2]; 200 mg/kg): 10% | activity (influenza [9]): no activity | virus production from pretreated cell populations, Groups 1-3 [10]: identical | virus production [11]: totally suppressed | mean death date (influenza [5]; 100 mg/kg): 8.7 days | mice survived (influenza [5]; 100 mg/kg): 62% | mean death date (influenza [5]; 200 mg/kg): 8 days | mice survived (influenza [5]; 200 mg/kg): 67% | Optical Density (A549 lung tumor cells; 0.87 ppm): 1.32 | Optical Density (A549 lung tumor cells; 3.46 ppm): 1.12 | Optical Density (A549 lung tumor cells; 17.3 ppm): 0.851 | Optical Density (A549 lung tumor cells; 35 ppm): 0.411 | Optical Density (A549 lung tumor cells; 173 ppm): 0.007 | activity against P388 (P388; mouse, in vivo): no activity | day by which virus production resumed after washing free of compound ([12]; 40 μg/ml): ≤ 12 days | day at which virus production was observed after washing free of compound ([12]; highest concentrations): ~70 days | time until virus production resumed after washing free of compound ([12]; lower concentrations (20 μg/ml and 4 μg/ml)): ≤ 4 days | Optical Density ([13]; 0.87 ppm): 0.507 | Optical Density ([13]; 3.46 ppm): 0.466 | Optical Density ([13]; 17.3 ppm): 0.258 | Optical Density ([13]; 35 ppm): 0.025 | Optical Density ([13]; 173 ppm): 0.007 | inhibition at 60 µg/mL (HIV; Human immunodeficiency virus 1, 60 μg/ml, read-out: inhibition of viral replication): 98% | activity against MX1 breast cancer tumors ([14]; implanted subcutaneously under the mice skin): no activity | concentration at which stable reductions in virus production were observed ([15]; after 28 days of treatment): greater than 10 μg/ml | concentrations that inhibited virus production ([15]; chronically infected cells): 1 to 10 µg/mL

CC(=O)O[C@H]1C(=O)[C@@]2(C)[C@H]([C@H](OC(=O)c3ccccc3)[C@]3(O)C[C@H](OC(=O)[C@H](O)[C@@H](NC(=O)c4ccccc4)c4ccccc4)C(C)=C1C3(C)C)[C@]1(OC(C)=O)CO[C@@H]1C[C@@H]2O [Taxol]
tumor weight (MCF-7L breast line): 0 mg | % weight change (wt) [1, 17]: +1% | toxic deaths/number of test subjects (deaths) [1, 17]: 0/10 | tumor growth suppression (tg supp.) [1, 17]: 75%

O=P1(N(CCCl)CCCl)NCCCO1 (stereo not shown) [Cytoxan, reference compound]
T/C (B-16 mouse melanoma; [18]): 191 | weight change (B-16 mouse melanoma; [18]): −8.43% | % weight change (wt) [1, 19]: −1% | toxic deaths/number of test subjects (deaths) [1, 19]: 0/10 | tumor growth suppression (tg supp.) [1, 19]: 69% | % weight change (wt) [1, 20]: +6% | toxic deaths/number of test subjects (deaths) [1, 20]: 0/10 | tumor growth suppression (tg supp.) [1, 20]: 0% | % weight change (wt) [1, 21]: +10% | toxic deaths/number of test subjects (deaths) [1, 21]: 0/10 | tumor growth suppression (tg supp.) [1, 21]: 45% | % weight change (wt) [1, 22]: −15% | toxic deaths/number of test subjects (deaths) [1, 22]: 3/10 | tumor growth suppression (tg supp.) [1, 22]: 100% | % weight change (wt) [1, 23]: −7% | toxic deaths/number of test subjects (deaths) [1, 23]: 0/10 | tumor growth suppression (tg supp.) [1, 23]: complete | increased life span, Positive Control (P388; P388-luekemia, positive control (125)): curative | T/C (P388; [18]): 191 | weight change (P388; [18]): −8.43% | Tumor Growth Decrease (lung): 69% | Tumor Growth Decrease ([14]; MXI-breast, positive control 125 mg/kg): regression

From US6362207B1, “Methods of treating viral infections with benzimidazoles” (priority 1995, dated 2002)
